According to publication PMC12473897 (Toxics, 2025):

System: T1, Coptodon zillii liver rhodanese
T1 construct: gene tst
Conditions: co-substrate KCN; standard assay borate pH 9.4, 37 °C; 5-50 mM range

**Q.** How did the Km turn out when `O=S(O)(O)=S` [sodium thiosulphate] was run?
**A.** Its Km is 20 mM.
